Data set [1] in a line: Hygroscopicity test by dynamic vapor sorption (DVS). Type of data set: physicochemical. As to conditions: for ΔW, hygroscopic weight gain: 25° C. and 80% RH, DVS; for Classification of hygroscopicity: 25° C./80% RH. As to the method:
Dynamic Vapor Sorption (DVS) of the Present Invention • Instrument model: SMS DVS Intrinsic Dynamic Vapor Sorption Analyzer • Test method: A sample (10-30 mg) is tested in a DVS sample pan. Detailed DVS Parameters: • Temperature: 25° C. • Equilibration: dm/dt=0.002%/min (Minimum: 10 min, Maximum: 180 min) • RH (%) test interval: 10 (0-90%), 5 (90-95%) • RH (%) test interval range: 0-95-0 Hygroscopicity evaluations are classified as follows: [table] Note: AW % represents the hygroscopic weight gain of the test product at 25° C./80% RH. Experimental Method: • 10-30 mg of the crystal form A of the compound of Formula (II) was placed in the DVS sample pan and tested. Experimental Method: • 10-30 mg of the crystal form G of the compound of Formula (III) was placed in the DVS sample pan and tested. Experimental Method: • 10-30 mg of the crystal form J of the compound of Formula (IV) was placed in the DVS sample pan and tested.

Data set [2] can be described thus: Stability comparison of crystal form A and crystal form B (slurry in ethanol, XRPD). Type of data set: physicochemical. The settings on record: stirred in ethanol for 16 hrs. The source says:
35 g of the crystal form B of the compound of Formula (II) was weighed, added to ethanol, and stirred for 16 hrs.

SMILES strings stand for the structures. Where “and” joins values, the source holds several entries; their conditions need not be identical. Equal entries are not always repeated.

Turning to `COc1cc(OC)c(F)c(Cc2c[nH]c3ncc(-c4cnn(CCO)c4)cc23)c1F`, in data set [1], the “ΔW, hygroscopic weight gain” value is 3.829% and 3.928%; the Classification of hygroscopicity entry is given as “hygroscopic”. In the case of `COc1cc(OC)c(F)c(Cc2c[nH]c3ncc(-c4cnn(CCO)c4)cc23)c1F.Cl`, the “Crystal form conversion (XRPD)” value in data set [2] is reported as “can be converted into the crystal form A of the compound of Formula (II)”. As for `COc1cc(OC)c(F)c(Cc2c[nH]c3ncc(-c4cnn(CCO)c4)cc23)c1F.Cc1ccc(S(=O)(=O)O)cc1`, in data set [1], the “ΔW, hygroscopic weight gain” value is given as 6.077% and the Classification of hygroscopicity entry is “hygroscopic”.

The values are drawn from patent US11919898B2, “Crystal form of azaindole derivative and use thereof” (Wuxi Life Fountain Biotech Co., Ltd, priority 2020, dated 2024).
